Results on 9 molecules are retold here after patent US8642540B2 (Zealand Pharma A/S, priority 2008, dated 2014).

The subject of experiment [1] is primary rat adipocyte cultures. It counts as cell-based. Conditions: for lipolysis potency relative to OXM / Stimulation of lipolysis EC50: primary rat adipocyte cultures; for Stimulation of lipolysis EC50: 60 min at 37° C., glycerol formed. How it is done: Adipocytes were isolated from epididymal fat dissected from normal young adult Sprague-Dawley rats. The fat lumps were minced, incubated and shaken (220 rpm) with collagenase (1 mg/ml) in Krebs-Ringer buffer containing 4% BSA (KRB-BSA) for 60 minutes at 37° C. The suspension was filtered through a nylon filter (160 μm pore size) and the filtrate centrifuged at 200×g for 3 min. The subjacent medium beneath the upper floating layer of adipocytes was removed with a Pasteur-pipette. The adipocytes were washed 3 times in KRB-BSA buffer by re-suspension and centrifugation. The adipocytes were re-suspended in KRB-BSA, mixed, incubated in and shaken with test compounds in 96-deep well plates (50,000 cells/well) in a total volume of 1 ml at 37° C. for 60 min. The plates were placed on ice for at least 10 min after incubation followed by centrifugation at 200×g for 3 min. 300 μl of the buffer beneath the adipocyte layer were collected in a 96-deep well plate. This process was repeated two more times and the 3 extracts collected from each culture pooled together.

A further experiment addresses T1, human GLP-1-R (Homo sapiens, UniProt P43220).
T1 construct: expressed in transfected cells
The experiment is described as follows: GLP-1 receptor efficacy assay (cAMP in HEK293 cells). In kind it is cell-based. Conditions: HEK293 cells expressing human GLP-1-R, 15 min at 37° C. The procedure: (§1) The 5′-end primers additionally encoded a near Kozak consensus sequence to ensure efficient translation.
(§2) 48 hr after transfection cells were seeded for limited dilution cloning and selected with 1 mg/ml G418 in the culture medium.
(§3) On the day of analysis, growth medium was removed and the cells washed once with 200 μl Tyrode buffer. Cells were incubated in 100 μl Tyrode buffer containing increasing concentrations of test peptides, 100 μM IBMX, and 6 mM glucose for 15 min at 37° C. The reaction was stopped by addition of 25 μl 0.5 M HCl and incubated on ice for 60 min. The cAMP content was estimated using the FlashPlate® cAMP kit from Perkin-Elmer.

A further experiment addresses T2, human Glucagon-R (Homo sapiens, UniProt P47871).
T2 construct: expressed in transfected cells
The experiment in a line: Glucagon receptor efficacy assay (cAMP in HEK293 cells). It counts as cell-based. Conditions: HEK293 cells expressing human Glucagon-R, 15 min at 37° C., read-out: GLUR EC50. How it is done:
as §1, §2, §3

The next experiment deals with diet induced obese mice. The experiment is described as follows: 28 day treatment of diet induced obese (DIO) mice, body weight gain. In kind it is in vivo, mouse. Conditions: C57Bl/6 male mice on high fat diet, 500 nmol/kg b.i.d. s.c., 28 days. The procedure: Effects of 28 Day Treatment of Diet Induced Obese (DIO) Mice with ZP2495 (SEQ ID NO: 5) on Body Weight Gain Four weeks before drug treatments, C57Bl/6 male mice (7 weeks) (N=10-12 animals in each group) were put on high fat diet (HFD) and their day-night cycle reversed with lights On/Off at 2000/0800 hour. Experimental animals were conditioned to treatment by daily injections (s.c.) of 0.1 ml vehicle and acclimatized to handling by weighing them twice a week one week before start of drug administrations. The day before start of experiment, mice were stratified into groups with similar body weight (BW) and the next day groups of stratified mice were treated (b.i.d.; s.c.) with ZP2495 (SEQ ID NO: 5) (500 nmol/kg) or vehicle. A non-obese control group maintained on regular chow was treated with vehicle in the same treatment regime as the DIO groups. Body weights were recorded daily and used to administer the body weight-corrected doses of peptide throughout the study. Animals were fasted overnight before sacrifice. […] Body weight gains throughout the treatment period were calculated for each animal by subtracting its weight at the initiation of treatment.
The effects of treatment on body weight gain were assessed by 2-way ANOVA with repeated measures and Bonferoni post-hoc analyses were using with GraphPad Prism version 4. […]

Where two headings read alike, the source gives them in different places. Non-standard residues stand in square brackets, D forms with d. Residues, ends and D or L forms follow the SMILES beside them.

T2 sequence (P47871 26-477): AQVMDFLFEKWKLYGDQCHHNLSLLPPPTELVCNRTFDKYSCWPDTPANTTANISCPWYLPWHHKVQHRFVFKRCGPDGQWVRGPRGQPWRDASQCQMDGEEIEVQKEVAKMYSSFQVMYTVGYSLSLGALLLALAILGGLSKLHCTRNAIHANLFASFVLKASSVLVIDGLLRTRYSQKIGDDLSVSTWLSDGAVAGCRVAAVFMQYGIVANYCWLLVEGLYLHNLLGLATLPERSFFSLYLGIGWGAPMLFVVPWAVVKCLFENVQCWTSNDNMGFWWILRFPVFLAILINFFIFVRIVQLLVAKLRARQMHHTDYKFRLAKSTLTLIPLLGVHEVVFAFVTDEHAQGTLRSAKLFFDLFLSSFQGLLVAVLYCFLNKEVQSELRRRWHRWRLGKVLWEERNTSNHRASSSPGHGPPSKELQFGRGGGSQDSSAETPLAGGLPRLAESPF
T1 sequence (P43220 24-463): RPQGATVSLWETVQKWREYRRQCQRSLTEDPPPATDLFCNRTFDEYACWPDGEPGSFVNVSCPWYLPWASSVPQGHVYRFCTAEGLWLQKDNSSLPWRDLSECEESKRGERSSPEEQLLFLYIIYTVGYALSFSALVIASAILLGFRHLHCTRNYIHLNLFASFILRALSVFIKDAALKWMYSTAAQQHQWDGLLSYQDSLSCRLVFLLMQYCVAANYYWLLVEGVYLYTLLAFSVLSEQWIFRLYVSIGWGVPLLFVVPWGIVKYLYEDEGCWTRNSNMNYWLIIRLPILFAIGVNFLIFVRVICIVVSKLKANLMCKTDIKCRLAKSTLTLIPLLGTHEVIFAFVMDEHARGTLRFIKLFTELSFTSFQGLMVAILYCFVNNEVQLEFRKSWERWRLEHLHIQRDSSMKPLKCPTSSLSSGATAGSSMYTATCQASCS

What is called EC50 is the concentration giving half of the maximal effect. With “H-HSQGTFTSDYSKYLDRARADDFVAWLKSA-NH2 [ZP2634]”, the EC50 in experiment [1] came to 127 nM; on human GLP-1-R it was 0.2 nM; on human Glucagon-R it was 0.5 nM. Also, the “lipolysis potency relative to OXM” value in experiment [1] is “equipotent with OXM”.
For `CC(C)C[C@H](NC(=O)[C@H](Cc1c[nH]c2ccccc12)NC(=O)[C@H](C)NC(=O)[C@@H](NC(=O)[C@H](Cc1ccccc1)NC(=O)[C@H](CC(=O)O)NC(=O)[C@H](CC(=O)O)NC(=O)[C@H](C)NC(=O)[C@H](CCCNC(=N)N)NC(=O)[C@H](C)NC(=O)[C@H](CCCNC(=N)N)NC(=O)[C@H](CC(=O)O)NC(=O)[C@H](CC(C)C)NC(=O)[C@H](Cc1ccc(O)cc1)NC(=O)[C@H](CCCCN)NC(=O)[C@H](CO)NC(=O)[C@H](Cc1ccc(O)cc1)NC(=O)[C@H](CC(=O)O)NC(=O)[C@H](CO)NC(=O)[C@@H](NC(=O)[C@H](Cc1ccccc1)NC(=O)[C@@H](NC(=O)CNC(=O)[C@H](CCC(N)=O)NC(=O)[C@@H](CO)NC(=O)[C@@H](N)Cc1c[nH]cn1)[C@@H](C)O)[C@@H](C)O)C(C)C)C(=O)N[C@@H](CCCCN)C(=O)N[C@@H](CO)C(=O)N[C@H](C(N)=O)[C@@H](C)O` [ZP2654] (H-H[dS]QGTFTSDYSKYLDRARADDFVAWLKST-NH2), the 50% effective concentration (EC50) is 326 nM in experiment [1], 0.8 nM at human GLP-1-R and 0.5 nM at human Glucagon-R.
Taken in the same sequence, the figures for “H-HSQGTFTSDYSKYLDRARAHDFVAWLKST-NH2 [ZP2648]” were 26 nM, 0.1 nM and 0.2 nM.
For “H-HSQGTFTSDYSKYLDRARADDFVAWLERA-NH2 [ZP2650]”, the concentration for a half-maximal effect (EC50) in experiment [1] was determined as 15 nM; at human GLP-1-R, 0.8 nM.
Regarding “H-HSQGTFTSDYSKYLDRARAEDFVAWLKST-NH2 [ZP2637]”, the results for the half-maximal effective concentration (EC50) (in experiment [1]; on human GLP-1-R; on human Glucagon-R) were 42 nM, 0.1 nM and 0.2 nM, respectively.
For the molecule Exendin-4 [reference compound], the “Stimulation of lipolysis EC50” value in experiment [1] is reported as “No effect”; in experiment [1] (listed as exendin-4), “no effect”.
For “H-HSQGTFTSDYSKYLDRARADDFVAWLKEA-NH2 [ZP2635]”, the figures for the concentration for a half-maximal effect (EC50) (in experiment [1]; on human GLP-1-R; on human Glucagon-R) were 93 nM, 0.2 nM and 0.2 nM, respectively.
With “H-HSQGTFTSDYSKYLDRARADDFVAWLKST-NH2 [ZP2495]”, in experiment [1], the EC50 amounted to 137 nM and the “lipolysis potency relative to OXM” value is recorded as “equipotent with OXM”. Besides, in the experiment on diet induced obese mice (2-way ANOVA, p<0.05), the “body weight gain versus vehicle group” value is reported as “statistically significantly less than observed in the vehicle group”. The body weight gain entry in the experiment with diet induced obese mice (compared with chow-fed controls) is “decreased body weight gain to a level similar to that observed with chow feeding”.
With “H-HSQGTFTSDYSKYLDRARADDFVEWLKST-NH2 [ZP2649]”, the results for the EC50 (in experiment [1]; at human GLP-1-R) were 57 nM and 0.1 nM, respectively.
